≈ marks a conversion by molar mass, not a printed value. Marks after values point to notes of the source that are not given here.
Legend:
[1] = test system: human sperm (semen samples); experiment: Spermicidal activity in the Sander-Cramer test; type: cell-based; details: for Highest Spermicidal Dilution (1/X) / MEC (Minimum Effective Concentration) / MEC: n=10; for MEC (Minimum Effective Concentration per Sander-Cramer assay): Table 4, dH2O
Description: Semen samples were collected from healthy human volunteers: only specimens with >60×10^6 motile sperm/mL and >50% motility were used. Two-fold serial dilutions of the compounds were prepared in 0.9% saline and incubated with semen samples for 20 seconds. Sperm were assessed under the microscope and positive dilutions (i.e. all observed sperm were immotile) were further incubated at 37° C. for 1 hour with 2 vol. of buffer, and re-examined for sperm motility. If no motile sperm were seen, the positive score was maintained. The Minimum Effective Concentration (MEC) for the compound was calculated using the highest sperm immobilizing dilution and its initial concentration.

HIV-1 (RF strain) = experiment: In vitro anti-HIV cell-free inactivation assay; type: cell-based; details: for reduction of infective viral titer: 2 minutes exposure
Description: The assay for in vitro anti-HIV activity followed the previously described procedure (Resnick et al., 1990). An infectious suspension of HIV-1 (RF strain, NIH 1983) was exposed to the compounds for 2 minutes. Immediately after, the mixture was 10-fold serially diluted with medium to terminate compound effect, and the dilutions were incubated with MT-2 target cells at 37° C. The cells were maintained in growth medium at 37° C. for 6 days. HIV-induced cytopathology (syncytium formation) was assessed on day 6 after infection, as was cell viability.

[2] = test system: sperm penetration in bovine cervical mucus; experiment: Cervical mucus biodiffusion, Double-End test; details: testing concentration ten fold MEC; 60 minutes incubation; n=12
Description: The cervical mucus Biodiffusion properties of (R)Z-14 and (R)-Z-15 analogues were tested in comparison to that of N-9 using the Double-End test (Doncel. 1994). In this test, compound solutions (in 0.9% saline) were incubated for 60 minutes with a 7 cm capillary tube containing bovine cervical mucus (Penetrak®, Biochem Immuno System, Norwell, Mass.) opened at one end. After such incubation, the tubes' open end, which had been in contact with the compound, was sealed. Subsequently, the tubes were cut open at 20 mm from the initial opening, inverted, and immersed in semen so as to allow sperm penetration in an opposite direction to that of the compound diffusion. Sperm cease penetration when they encounter a bioactive concentration of the test compound. Thus, the lower the sperm penetration, the greater the compound's biodiffusion. In addition, the spermicidal activity of the analogues was tested again.

Candida albicans = experiment: Inhibition of growth of Candida albicans (MIC); type: cell-based; details: for MIC: C. albicans, 4 days at 28° C.
Description: The Minimum Inhibitory Concentrations (MICs) of Z-10-Z-15 were measured by determining the inhibition of growth of C. albicans in a solution of mineral salts plus yeast extract (See Standard Practice for Determining Resistance of Synthetic Polymeric Material to Fungi. American Society for Testing and Materials (ASTM) Standards on Materials and Environmental Microbiology, 1st Ed., 1987), and amended with glucose (10 g/L) and yeast extract (1 g/L). An aliquot (250 μl) of sterile medium was dispensed into each well of a 96-well microplate. Stock solutions were prepared by dissolving test compounds in 50% (v/v) aqueous dimethylsulfoxide (DMSO). Each well (plus controls) was then inoculated with 5 μl of a suspension of C. albicans. The suspension was then adjusted to provide OD686=0.28. This density contains ca. 2.5×10^7 colony forming units (CFU)^2/mL. The microplates were incubated in the dark for 4 days at 28° C.

[3] = Effect of time in CMC formulation on activity and chemical integrity; type: physicochemical
Description: Residual samples of (R)-Z-15 in the CMC formulation were analyzed with ^1H nuclear magnetic resonance (NMR) and Matrix Assisted Laser Desorption Ionization Time of Flight Mass Spectroscopy (MALDI-TOF). For the NMR analyses, samples of the hydrogel were dissolved in D2O. For the MALDI-TOF analysis a sample of the hydrogel was placed in the chamber and subjected to the laser. The MALDI-TOF results are depicted in FIG. 1.

spermatozoa = experiment: Sperm motility inhibition dose-response; type: cell-based; details: FIG. 2
Description: The ability of Z-15-mucic acid blends [(R)-Z-15-MA and rac-Z-15-MA] to inhibit sperm motility was tested in comparison to (R)-Z-15 alone or N-9. The results are depicted in FIG. 2.

pH of sample = type: physicochemical
Excerpt: The recent disclosure (Fassi, U.S. Pat. No. 5,952.379) of stable, non-hygroscopic salts of L-(-)[(R)-]acylcamitine and alkanoyl L-(-)-[(R)-]acylcarnitines with mucic acid (MA) (2:1) prompted the exploration of the effects of blending MA with Z-15. Blending reduced the pH of a sample of Z-15 from about 9-10 to about 3.5-3.8. The blends contained only 67% Z-15 as an active ingredient compared to pure Z-15 (100%).

[4] = Table 1, initial conc. 10 mg/ml in dH2O
[5] = Table 5, initial conc. 10 mg/ml in dH2O
[6] = Table 6, initial conc. 10 mg/mL in dH2O

Compound	Highest Spermicidal Dilution (1/X) [1, 4]	MEC (Minimum Effective Concentration) [1, 4] [mg/mL]	MEC (Minimum Effective Concentration per Sander-Cramer assay) [1] [mg/mL]	Highest Spermicidal Dilution (1/X) [1, 5]	MEC [1, 5] [mg/mL]	reduction of infective viral titer (HIV-1 (RF strain); 0.032 mg/mL) [log units]	reduction of infective viral titer (HIV-1 (RF strain); 0.1 mg/mL) [log units]	reduction of infective viral titer (HIV-1 (RF strain); 0.32 mg/mL) [log units]	reduction of infective viral titer (HIV-1 (RF strain); 1 mg/mL)	DET % control (test sperm penetration compared to control) [2] [% control]	MIC (Candida albicans) [µg/mL]	reduction of infective viral titer (HIV-1 (RF strain); 3.2 mg/mL)	reduction of infective viral titer (HIV-1 (RF strain); 10 mg/mL)	further results
Nonoxynol-9 [Compound N-9, reference compound]	83.2 ± 18.2 1/X	0.144 ± 0.011	0.144 ± 0.011	33.6 ± 3.5 1/X	0.329 ± 0.035	0.5	2.2	3.5	≧4.0^ log units	17.5 ± 0.7				Highest Spermicidal Dilution (1/X) [1, 6]: 73.6 ± 8.4 1/X; MEC [1, 6]: 0.156 mg/mL; anti-HIV activity, in words (HIV-1 (RF strain); Table 2): slightly more active than these compounds
CCCCCCCCCCCCCC[C@@]1(O)C[N+](C)(C)C[C@@H](CC(=O)[O-])O1 [Compound Z-14]	102.4 ± 18.5 1/X	0.121 ± 0.014	0.091 ± 0.008			0.5	1.5	2.8	3.5 log units	18.0 ± 1.2	10 (≈ 25.9 µM)	≧4.0 log units	≧4.0^ log units	spermicidal activity (MEC), in words ([1]; Table 1): slightly lower than that of N-9; C. albicans growth inhibition, in words (Candida albicans): acceptable activity
CCCCCCCCCCCCCCC[C@@]1(O)C[N+](C)(C)C[C@@H](CC(=O)[O-])O1 [Compound Z-15]	102.4 ± 9.9 1/X	0.109 ± 0.012	0.104 ± 0.011	73.6 ± 9.1 1/X	0.156 ± 0.019	0.3	1.5	2.7	3.2 log units	16.0 ± 0.0	2 (≈ 5 µM)	3.8 log units	≧4.0^ log units	spermicidal activity (MEC), in words ([1]; Table 1): slightly lower than that of N-9; C. albicans growth inhibition, in words (Candida albicans): highest activity; chemical integrity in formulation (1H NMR, MALDI-TOF) ([3]; six months in the CMC formulation): remained unchanged chemically; spermicidal activity after time in formulation ([3]; three months in the CMC formulations): still active as a spermicide after three months; inhibition of sperm motility at concentrations below the MEC, in words (spermatozoa): superior ability of Z-15 over N-9; pH of a sample (pH of sample): 9-10
CCCCCCCCCC[C@@]1(O)C[N+](C)(C)C[C@@H](CC(=O)[O-])O1 [Compound Z-10]	4.8 ± 0.5 1/X	2.3 ± 0.2						0.8	1.0 log units		>100	2.8 log units	≧4.0^a log units	
CCCCCCCCCCCC[C@@]1(O)C[N+](C)(C)C[C@@H](CC(=O)[O-])O1 [Compound Z-12]	27.2 ± 2.3 1/X	0.407 ± 0.7				0.0	0.3	2.0	2.8 log units		80 to 100	≧3.5 log units	≧4.0^ log units	
CCCCCCCCCCCCCCCC1(O)C[N+](C)(C)CC(CC(=O)[O-])O1 (racemic) [(rac)-Z-15]				115.2 ± 23.6 1/X	0.117 ± 0.016									spermicidal activity, in words ([1]; Table 5): slightly more active than the two enantiomers and significantly more active than N-9; spermicidal activity, in words ([1]; Table 6): activity equal to that of the R and S enantiomers; Highest Spermicidal Dilution (1/X) [1, 6]: 108.80 ± 19.20 1/X; MEC [1, 6]: 0.113 mg/mL
CCCCCCCCCCC[C@@]1(O)C[N+](C)(C)C[C@@H](CC(=O)[O-])O1 [Compound Z-11]	7.6 ± 0.0 1/X	1.4 ± 0.1						0.8	2.0 log units		>100	2.7 log units	4.7 log units	
CCCCCCCCCCCCC[C@@]1(O)C[N+](C)(C)C[C@@H](CC(=O)[O-])O1 [Compound Z-13]	48.0 ± 5.1 1/X	0.235 ± 0.025				0.5	1.5	2.7	3.3 log units		40 (≈ 108 µM)	3.5 log units	3.5 log units	

— patent publication US6656936B1, “Carnitine analogues as topical, microbicidal spermicides” (Virginia Tech Intellectual Properties, Inc., priority 1999, dated 2003)
